Assay results: article PMC7281206, “Cysteine Cathepsins Inhibition Affects Their Expression and Human Renal Cancer Cell Phenotype” (Cancers, 2020)
*: point of attachment. CH2F = FC*

How the values were obtained:
human recombinant CtsB = experiment: Fluorescent protease activity assay, recombinant CtsB; type: biochemical; conditions: 20 nM CtsB, 50 μM Ac-PLVQ-AMC, inhibitor 2 μM; 0.1 M sodium acetic buffer pH 4.6, 12 min, Ex/Em 353/442 nm
Description: Ac-PLVE-FMK and Ac-VLPE-FMK inhibitory properties were evaluated against human recombinant CtsL and B. These recombinant enzymes were expressed in E. coli via plasmid transformation and further purification, using nickel-nitrilotriacetic acid (Ni-NTA) sepharose. Gel zymography assay was used to provide a preliminary evaluation of the ability of these recombinant proteins to degrade the gelatin substrate previously embedded in the gel (Supplementary Figure S1). Following Coomassie staining, the Cts were detectable as single bands. As expected, a translucent area was evident, due to the substrate digestion in the proximity of the proteins. Then, the recombinant proteins were tested for their ability to digest the Triticain-α substrate Ac-PLVQ via fluorescent protease activity assay, previously optimized by our group. This probe was conjugated with the fluorogenic chromophore 7-amino-4-methylcoumarin (Ac-PLVQ-AMC). After proteolytic cleavage, it emits a detectable fluorescent signal.
Total RNA extract from retinoblastoma […] cells was used to obtain cDNA. A pair of oligonucleotides ([…] and […]) was used for the amplification of DNA fragment containing CtsB, the product of which was ligated into pET15b (Merck Millipore, Billerica, MA, USA) using NdeI and XhoI. DNA fragment containing CtsL was amplified using a pair of oligonucleotides ([…] and […]) and ligated into pET28a (+) (Merck Millipore, Billerica, MA, USA) using NheI and HindIII. […]
The activity of recombinant CtsL and B was detected by the hydrolysis of the fluorogenic substrate Ac-Pro-Leu-Val-Gln- 7-amino-4-methylcoumarin (AMC) (Pepmic Suzhou Jiangsu, China). […] The substrate was added to a final concentration of 50 μM, and its hydrolysis was continuously measured for 12 min using a CLARIOstar® Plus plate reader (BMG Labtech Ortenberg Baden-Württemberg, Germany) at excitation and emission wavelengths of 353 and 442 nm, respectively.

[1] = tested on: E-cadherin in 769-P cells; experiment: E-cadherin protein expression (western blot), 769-P; type: cell-based, human
Description: These properties could be the result of the modulation of the effectors controlling EMT, as previously shown in other tumor models. To test this hypothesis, the cells were treated with the inhibitors for 24, 48, and 72 h by changing the media every day, and they were tested for E-cadherin and SNAIL1 expression (Figure 6; detail information of western blots can be seen in Supplementary Figure S7).  Figure 6 Effects of the peptides on E-cadherin and SNAIL1 protein expression: (a,b) protein expression of E-cadherin and SNAIL1 in 769-P and (c,d) A498 cells after 24, 48, and 72 h of treatment with the peptides. Data are represented as mean ± SD of at least three replicates. Significance was calculated through one-way ANOVA, followed by Dunnet’s test. Cells were seeded in RPMI containing 10% FBS and cultured for 24 h. Next, 30 µM of inhibitors were added to the culture medium and incubated for 24, 48, and 72 h. Control cells were treated with 0.01% DMSO. At all time points the samples were lysed in 50 mM Tri-HCl (pH 8.0), 100 mM NaCl, 0.5% NP-40, 1% Triton X-100, 1× protease inhibitor cocktail (ThermoFisher, Waltham, MA, USA). The 50 µg of protein lysates were separated by electrophoresis on a 12% SDS-PAGE gel and transferred to the PFDF membranes. The expression of cysteine Cts, LAMP-1, E-cadherin, and SNAIL1 were identified by a reaction with specific primary antibodies (CtsB-Ab190077, Abcam, UK; CtsL-Ab95154, Abcam, UK; CtsW Ab191083; LAMP-1- Ab24170, Abcam, UK; SNAIL1 Ab216347, Abcam, UK and e-cadherin-612131, BD Sciences Franklin Lakes, NJ, USA) which were resuspended in 5% non-fat milk in PBST (all Cts 1:3000, LAMP-1, SNAIL1 and E-cadherin 1:1000) and incubated O/N. The next day, the membranes were washed three times with PBST and incubated for 1 h with secondary antibodies (P-GAR Iss (Goat pAb to rabbit IgG (HRP), Abcam, UK or Rabbit Ab to mouse, Abcam, UK; both 1:5000) in 5% non-fat milk in PBST. After an additional wash (three times with PBS), reactive bands were detected by chemiluminescence (Bio-Rad, Irvine, CA, USA). As a loading control, the membranes were incubated with a polyclonal anti-tubulin antibody (1:5000; Ab52866, Abcam, UK) identically.

E-cadherin in A498 cells = experiment: E-cadherin protein expression (western blot), A498; type: cell-based, human; conditions: first 48 h
Description: These properties could be the result of the modulation of the effectors controlling EMT, as previously shown in other tumor models. To test this hypothesis, the cells were treated with the inhibitors for 24, 48, and 72 h by changing the media every day, and they were tested for E-cadherin and SNAIL1 expression (Figure 6; detail information of western blots can be seen in Supplementary Figure S7). Figure 6 Effects of the peptides on E-cadherin and SNAIL1 protein expression: (a,b) protein expression of E-cadherin and SNAIL1 in 769-P and (c,d) A498 cells after 24, 48, and 72 h of treatment with the peptides. Data are represented as mean ± SD of at least three replicates. Significance was calculated through one-way ANOVA, followed by Dunnet’s test. Cells were seeded in RPMI containing 10% FBS and cultured for 24 h. Next, 30 µM of inhibitors were added to the culture medium and incubated for 24, 48, and 72 h. Control cells were treated with 0.01% DMSO. At all time points the samples were lysed in 50 mM Tri-HCl (pH 8.0), 100 mM NaCl, 0.5% NP-40, 1% Triton X-100, 1× protease inhibitor cocktail (ThermoFisher, Waltham, MA, USA). The 50 µg of protein lysates were separated by electrophoresis on a 12% SDS-PAGE gel and transferred to the PFDF membranes. […] After an additional wash (three times with PBS), reactive bands were detected by chemiluminescence (Bio-Rad, Irvine, CA, USA). […]

[2] = tested on: 769-P cells (endolysosomal compartment); experiment: Neutral red assay (endolysosomal integrity), 769-P; type: cell-based, human; conditions: 2.5–250 μM; 48 h
Description: Figure S6. The effect of the peptide inhibitors on human 769‐P and A498 renal cancer cell on
lysosomes integrity. (a) 769‐P and (b) A498 cells were treated with increasing doses of Ac‐PLVE‐FMK
(red bars) and Ac‐VLPE‐FMK (blue bars) (2.5–250 μM). NR uptake was measured after 24, 48, and 72
h via MTT assay. (c) LysoTracker red evaluation in 769‐P and (d) A498 cells after 24, 48, and 72 h with
the inhibitors (20 μM). Data represent the mean (± S.D.) of at least three independent experiments,
each performed in triplicate.

Dispersibility in water = type: physicochemical

Row | Dispersibility in water (Dispersibility in water) | Substance | Inhibition of Ac-PLVQ-AMC cleavage (fluorescent signal) (human recombinant CtsB) | E-cadherin protein expression ([1]; 72 h) | E-cadherin protein expression ([1]; first 48 h) | E-cadherin protein expression (E-cadherin in A498 cells) | Neutral red uptake [2]
1 | easily dispersed in water | Ac-PLVE-CH2F [Ac-PLVE-FMK] | the intensity of the fluorescent signal was significantly affected | further increased in 769P cells | increased the protein expression of E-cadherin in the first 48 h in both the cell lines | increased the protein expression of E-cadherin in the first 48 h in both the cell lines | slightly increasing
2 | easily dispersed in water | Ac-VLPE-CH2F [Ac-VLPE-FMK] | the intensity of the fluorescent signal was significantly affected | further increased in 769P cells | increased the protein expression of E-cadherin in the first 48 h in both the cell lines | increased the protein expression of E-cadherin in the first 48 h in both the cell lines | slightly increasing
